According to US9040524B2, “Antifungal 5,6-dihydro-4H-pyrrolo[1,2-a][1,4]-benzodiazepines and 6H-pyrrolo[1,2-a][1,4]benzodiazepines substituted with bicycle benzene derivatives” (JANSSEN PHARMACEUTICA NV, priority 2010, dated 2015):

How the values were obtained:
Assay type in all cases: cell-based
Microsporum canis = experiment: Antifungal activity in vitro, resazurin growth inhibition screen: Microsporum canis; conditions: Microsporum canis B68128; for IC50: read-out: Inf. B pIC50 (converted)
Procedure: (§1) The standard susceptibility screen was performed in 96-well plates (U-bottom, Greiner Bio-One). Serial dilutions (2-fold or 4-fold) of 20 mM compound stock solutions were made in 100% DMSO, followed by an intermediate dilution step in water. These serial dilutions (10 μl) were then spotted onto test-plates that could be stored in the dark at 4° C. for a maximum period of 2 weeks. An adequate broad dose-range was included with 64 μM as the highest in-test concentration. […] The different fungal species/isolates (Table 3a) were cryopreserved and 1/1000 diluted in medium just prior to use. A standard inoculum of 200 μl containing 10^3 colony-forming unit (cfu) was then added to each well. A positive control (100% growth=fungal culture without antifungal) and a negative control (0% growth=RPMI-MOPS medium) were included on each plate.

[1] = system: Trichophyton mentagrophytes; experiment: Antifungal activity in vitro, resazurin growth inhibition screen: Trichophyton mentagrophytes; conditions: Trichophyton mentagrophytes B70554; for IC50: read-out: Inf. G pIC50 (converted)
Procedure: as §1

Trichophyton rubrum = experiment: Antifungal activity in vitro, resazurin growth inhibition screen: Trichophyton rubrum; conditions: Trichophyton rubrum B68183; for IC50: read-out: Inf. C pIC50 (converted)
Procedure: as §1

Sporothrix schenkii = experiment: Antifungal activity in vitro, resazurin growth inhibition screen: Sporothrix schenkii; conditions: Sporothrix schenkii B62482; for IC50: read-out: Inf. A pIC50 (converted)
Procedure: as §1

Aspergillus fumigatus = experiment: Antifungal activity in vitro, resazurin growth inhibition screen: Aspergillus fumigatus; conditions: Aspergillus fumigatus B42928; for IC50: read-out: Inf. E pIC50 (converted)
Procedure: as §1

Candida parapsilosis = experiment: Antifungal activity in vitro, resazurin growth inhibition screen: Candida parapsilosis; conditions: Candida parapsilosis B66126; for IC50: Lodderomyces parapsilosis, read-out: Inf. D pIC50 (converted)
Procedure: as §1

Cryptococcus neoformans = experiment: Antifungal activity in vitro, resazurin growth inhibition screen: Cryptococcus neoformans; conditions: Cryptococcus neoformans B66663; for IC50: read-out: Inf. F pIC50 (converted)
Procedure: as §1

| Compound | Inf. B pIC50 (Microsporum canis) | Inf. G pIC50 [1] | Inf. C pIC50 (Trichophyton rubrum) | Inf. A pIC50 (Sporothrix schenkii) | Inf. E pIC50 (Aspergillus fumigatus) | Inf. D pIC50 (Candida parapsilosis) | Inf. F pIC50 (Cryptococcus neoformans) | IC50 (Microsporum canis) [µM] | IC50 [1] [µM] | IC50 (Trichophyton rubrum) [µM] | IC50 (Sporothrix schenkii) [µM] | IC50 (Aspergillus fumigatus) [µM] | IC50 (Candida parapsilosis) [µM] | IC50 (Cryptococcus neoformans) [µM] |
| --- | --- | --- | --- | --- | --- | --- | --- | --- | --- | --- | --- | --- | --- | --- |
| Clc1ccc2c(c1)-n1cccc1C(c1ccc3c(c1)CCOC3)=NC2 [Compound 41, 9-chloro-4-(3,4-dihydro-1H-2-benzopyran-6-yl)-6H-pyrrolo[1,2-a][1,4]benzo-diazepine] | 4.48 | 4.49 | <4.19 | <4.19 | <4.19 | 5.60 | 4.52 | – | – | – | – | – | – | – |
| Clc1ccc2c(c1)-n1cccc1C(c1ccc3c(c1)CCCO3)=NC2 [Compound 42, 9-chloro-4-(3,4-dihydro-2H-1-benzopyran-6-yl)-6H-pyrrolo[1,2-a][1,4]benzo-diazepine] | 4.49 | <4.19 | <4.19 | 5.10 | <4.19 | 5.63 | 6.82 | – | – | – | – | – | – | – |
| Clc1ccc2c(c1Cl)CN=C(c1ccc3c(c1)CCO3)c1cccn1-2 [Compound 44, 7,8-dichloro-4-(2,3-dihydro-5-benzofuranyl)-6H-pyrrolo[1,2-a][1,4]benzodiazepine] | – | – | – | – | – | – | – | 5.01 | 7.94 | 5.01 | 5.01 | > 64.6 | 12 | 7.08 |
| Fc1cc(F)c2c(c1)-n1cccc1C(c1ccc3c(c1)CCCO3)=NC2 [Compound 46, 4-(3,4-dihydro-2H-1-benzopyran-6-yl)-7,9-difluoro-6H-pyrrolo[1,2-a][1,4]benzo-diazepine] | 4.48 | <4.19 | 4.44 | 4.49 | 4.49 | 5.79 | 5.49 | – | – | – | – | – | – | – |
| Clc1ccc(Cl)c2c1CN=C(c1ccc3c(c1)OCC3)c1cccn1-2 [Compound 47, 7,10-dichloro-4-(2,3-dihydro-6-benzofuranyl)-6H-pyrrolo[1,2-a][1,4]benzo-diazepine] | 5.40 | <4.19 | 5.92 | <4.19 | <4.19 | <4.19 | <4.19 | – | – | – | – | – | – | – |
| Br.CCOc1cc2c(cc1C1NCc3c(Cl)cccc3-n3cccc31)OC(C)C2 (stereo not shown) [Compound 50, 7-chloro-4-(5-ethoxy-2,3-dihydro-2-methyl-6-benzofuranyl)-5,6-dihydro-4H-pyrrolo[1,2-a][1,4]benzodiazepine .HBr] | 4.92 | <4.19 | 5.52 | <4.19 | <4.19 | <4.19 | 4.74 | – | – | – | – | – | – | – |
| Cl.O=C1CCc2ccc(C3NCc4c(Cl)cccc4-n4cccc43)cc21 (stereo not shown) [Compound 52, 6-(7-chloro-5,6-dihydro-4H-pyrrolo[1,2-a][1,4]benzodiazepin-4-yl)-2,3-dihydro-1H-inden-1-one .HCl] | <4.80 | 4.31 | 4.55 | <4.19 | <4.19 | <4.19 | <4.19 | – | – | – | – | – | – | – |
| Cl.Fc1cccc2c1CNC(c1ccc3c(c1)CCC(F)(F)O3)c1cccn1-2 (stereo not shown) [Compound 53, 4-(2,2-difluoro-3,4-dihydro-2H-1-benzopyran-6-yl)-7-fluoro-5,6-dihydro-4H-pyrrolo[1,2-a][1,4]benzodiazepine .HCl] | 4.49 | 4.49 | 4.50 | <4.19 | 4.97 | <4.19 | 4.87 | – | – | – | – | – | – | – |
| Cl.Fc1cc(F)c2c(c1)-n1cccc1C(c1ccc3c(c1)CCC(F)(F)O3)NC2 (stereo not shown) [Compound 54, 4-(2,2-difluoro-3,4-dihydro-2H-1-benzopyran-6-yl)-7,9-difluoro-5,6-dihydro-4H-pyrrolo[1,2-a][1,4]benzodiazepine .HCl] | 5.09 | 4.49 | 5.10 | <4.19 | <4.19 | <4.19 | 5.11 | – | – | – | – | – | – | – |
| O=C1CCc2cc(C3=NCc4cccc(Cl)c4-n4cccc43)ccc21 [Compound 57, 5-(10-chloro-6H-pyrrolo[1,2-a][1,4]benzodiazepin-4-yl)-2,3-dihydro-1H-inden-1-one] | – | – | – | – | – | – | – | 2 | 3.98 | 1.58 | 2.24 | 2.4 | > 64.6 | 5.89 |
| O=C1CCCc2cc(C3=NCc4cccc(Cl)c4-n4cccc43)ccc21 [Compound 61, 6-(10-chloro-6H-pyrrolo[1,2-a][1,4]benzodiazepin-4-yl)-3,4-dihydro-1 (2H)-naphthalenone] | – | – | – | – | – | – | – | > 64.6 | > 64.6 | 49 | 31.6 | 32.4 | 4.37 | 8.13 |
| FC1(F)CCc2cc(C3=NCc4c(Cl)cccc4-n4cccc43)ccc21 [Compound 66, 7-chloro-4-(1,1-difluoro-2,3-dihydro-1H-inden-5-yl)-6H-pyrrolo[1,2-a][1,4]benzo-diazepine] | 4.49 | <4.19 | <4.19 | 4.46 | 5.09 | 5.55 | 6.11 | – | – | – | – | – | – | – |
| FC1(F)CCc2cc(C3=NCc4ccc(Cl)cc4-n4cccc43)ccc21 [Compound 67, 9-chloro-4-(1,1-difluoro-2,3-dihydro-1H-inden-5-yl)-6H-pyrrolo[1,2-a][1,4]benzo-diazepine] | 5.09 | 5.09 | <4.19 | 5.10 | 5.10 | 5.90 | 5.36 | – | – | – | – | – | – | – |
| FC1(F)CCc2cc(C3=NCc4cccc(Cl)c4-n4cccc43)ccc21 [Compound 68, 10-chloro-4-(1,1-difluoro-2,3-dihydro-1H-inden-5-yl)-6H-pyrrolo[1,2-a][1,4]benzo-diazepine] | <4.19 | <4.19 | <4.19 | <4.19 | 4.19 | <4.19 | <4.19 | – | – | – | – | – | – | – |
| FC1(F)CCc2cc(C3=NCc4ccc(Cl)cc4-n4cccc43)ccc2O1 [Compound 71, 9-chloro-4-(2,2-difluoro-3,4-dihydro-2H-1-benzopyran-6-yl)-6H-pyrrolo[1,2-a]-[1,4]benzodiazepine] | – | – | – | – | – | – | – | 0.617 | 0.309 | 0.269 | 1.95 | 0.219 | 8.13 | 0.1 |
| FC1(F)CCc2cc(C3=NCc4cccc(Cl)c4-n4cccc43)ccc2O1 [Compound 72, 10-chloro-4-(2,2-difluoro-3,4-dihydro-2H-1-benzopyran-6-yl)-6H-pyrrolo[1,2-a]-[1,4]benzodiazepine] | – | – | – | – | – | – | – | 0.407 | 1.62 | 0.407 | 2.63 | 0.617 | 11 | 0.38 |
